One test concerns post-lung transplant BOS. As to conditions: prophylactic, compared to placebo; cited from earlier work.
In test [1] the test system is patients with post-lung transplant BOS. As to conditions: patients with an FEV1 response vs those without; cited from earlier work.
For test [2] the test system is unchanged. As to conditions: switching from cyclosporine to tacrolimus; cited from earlier work.
The subject of test [3] is pediatric patients with lung cGVHD. As to conditions: cited from earlier work.
The test system of another test is patients with aGVHD. As to conditions: human, in vivo, cited from earlier work.
A further test relates to patients with cGVHD. As to conditions: human, in vivo; cited from earlier work.
A further test deals with patients with lung cGVHD. As to conditions: response defined by an increase in FEV1 of ≥10%; cited from earlier work.
The target of the next test is human JAK1 (Homo sapiens, UniProt P23458). Put plainly: In vitro JAK kinase assay (Example A), JAK1. The test is classed as biochemical. As to conditions: 1 mM ATP. The text has this: In some embodiments, the JAK1 pathway inhibitor is a compound of Table 2, or a pharmaceutically acceptable salt thereof.
Test [4] has as its system alloreactive mouse model (GVHD). As to conditions: prophylactic and therapeutic dosing, 60 mg/kg per day or 120 mg/kg per day; cited from earlier work.
The target of another test is human JAK2 (Homo sapiens (Human), UniProt O60674). Put plainly: In vitro JAK kinase assay (Example A), JAK2. The test is classed as biochemical. As to conditions: JAK2/JAK1 IC50 ratio, 1 mM ATP. As to the method: The compounds in Table 2 were tested in this assay and shown to have the IC50 values in Table 2.
human JAK2, sequence (O60674 828-1132): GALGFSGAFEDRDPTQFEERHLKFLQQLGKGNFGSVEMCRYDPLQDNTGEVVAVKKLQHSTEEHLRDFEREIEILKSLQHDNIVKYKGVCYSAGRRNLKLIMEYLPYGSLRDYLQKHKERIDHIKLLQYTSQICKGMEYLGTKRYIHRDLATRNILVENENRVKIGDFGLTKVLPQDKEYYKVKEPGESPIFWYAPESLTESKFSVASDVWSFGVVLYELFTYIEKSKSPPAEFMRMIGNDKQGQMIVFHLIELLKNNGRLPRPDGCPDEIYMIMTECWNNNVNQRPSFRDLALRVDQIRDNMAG
Test [5] concerns patients with BOS after lung transplantation. As to conditions: cited from earlier work.

The structures appear in SMILES notation. “Also recorded” adds a separate entry of the source. Read-outs that look alike come from different tables or passages of the source. Bounds are passed on as bounds.

A word on the IC50: it is the concentration at which inhibition is half-maximal. Lower therefore signals greater potency in that assay.

`CC[C@H]1OC(=O)[C@H](C)[C@@H](O[C@H]2C[C@@](C)(OC)[C@@H](O)[C@H](C)O2)[C@H](C)[C@@H](O[C@@H]2O[C@H](C)C[C@H](N(C)C)[C@H]2O)[C@](C)(O)C[C@@H](C)CN(C)[C@H](C)[C@@H](O)[C@]1(C)O` [Azithromycin]: in the test with post-lung transplant BOS, the “cases of BOS” value was “fewer cases of BOS” and the overall survival result is “overall survival was not affected”. Besides, the overall survival result in test [1] was “overall survival advantage”.

Turning to `C=CC[C@@H]1/C=C(\C)C[C@H](C)C[C@H](OC)[C@H]2O[C@@](O)(C(=O)C(=O)N3CCCC[C@H]3C(=O)O[C@H](/C(C)=C/[C@@H]3CC[C@@H](O)[C@H](OC)C3)[C@H](C)[C@@H](O)CC1=O)[C@H](C)C[C@@H]2OC` [tacrolimus], the “loss of predicted FEV1” value in test [2] is “decrease in the loss of predicted FEV1”.

As for `N#CC[C@H](C1CCCC1)n1cc(-c2ncnc3[nH]ccc23)cn1` [ruxolitinib], in test [3] (1 patient), the “increase in FEV1” value is 9%. Further, the responses in test [3] (5 pediatric patients (4 evaluable)) was 2. Also, the “decrease of the steroid requirement” value in test [3] (final patient) is on record as more than 50%. Further, the “patients able to wean steroids completely” value in test [3] (human, in vivo) was “Four out of five”. Moreover, the “clinical efficacy in acute GVHD” value in the test on patients with aGVHD is recorded as “demonstrated clinical efficacy”. For the same molecule, in the test on patients with cGVHD, the “clinical efficacy in chronic GVHD” value is given as “produced clinical efficacy”. Besides, the “patients with FEV1 responses” value in the test on patients with lung cGVHD was 4 out of 5.

Molecule `N#CCC1(n2cc(-c3ncnc4[nH]ccc34)cn2)CN(C2CCN(C(=O)c3ccnc(C(F)(F)F)c3F)CC2)C1` [Compound 1, {1-{1-[3-Fluoro-2-(trifluoromethyl)isonicotinoyl]piperidin-4-yl}-3-[4-(7H-pyrrolo[2,3-d]pyrimidin-4-yl)-1H-pyrazol-1-yl]azetidin-3-yl}acetonitrile] gave an IC50 against human JAK1 of less than 10 nM. Further, the GVHD score result in test [4] is given as “improvement in the GVHD score”. The JAK2/JAK1 at human JAK2 is more than 10. In addition, the “clinical efficacy in acute GVHD” value in the test on patients with aGVHD (listed as itacitinib) is given as “demonstrated clinical efficacy; also recorded: significant clinical activity”.

Regarding `CC(C)(O)c1ccccc1CC[C@@H](SCC1(CC(=O)O)CC1)c1cccc(/C=C/c2ccc3ccc(Cl)cc3n2)c1` [Montelukast], in test [5] (overall cohort, 30 patients randomized vs placebo), the “effect on lung function decline” value is “no effect on lung function decline”. The “decline of FEV1” value in test [5] (post-hoc subanalysis of BOS grade 1 patients, absolute and predicted FEV1) is reported as “attenuated further decline of FEV1”.
